Here are results for three compounds from patent US5310559A, “Device for controlled release and delivery to mammalian tissue of pharmacologically active agents incorporating a rate controlling member which comprises an alkylene-alkyl acrylate copolymer” (Hercon Laboratories Corporation, priority 1992, dated 1994).

The nature of data set [1]: Flux through human skin from articles of FIG. 4 (Example V). Particulars: reservoir 5% drug.
The conditions of data set [2]: even at higher clonidine concentrations.
The conditions of data set [3]: cited from earlier work.
The nature of data set [4]: Release of timolol from polymeric reservoir with and without ethylene-methyl acrylate membranes (Example IV). Format: physicochemical. From the text:
FIG. 11 is a graph of timolol release versus time (time versus accumulation) from an ADMEX® 760 reservoir without the use of a control membrane as set forth in Example IV. The graph indicated by reference numeral 111 is the graph of mg/cm^2 of timolol release versus hours. The basis of this graph is more specifically set forth in Example IV.
FIG. 13 is a series of graphs (time versus flux) of timolol release rate through control membranes consisting of copolymers of ethylene and methyl acrylate; 5% and 7% with 1.25 mils thickness and 2.5 mils thickness as more specifically set forth in Example IV. The graph indicated by reference numeral 130 is the graph for a membrane having 7% methyl acrylate repeating monomeric units and a membrane of thickness 1.25 mils. The graph indicated by reference numeral 131 is the graph for use of a membrane containing 5% methyl acrylate repeating monomeric units with a thickness of 1.25 mils. The graph indicated by reference numeral 132 is the graph for the use of a membrane containing 7% methyl acrylate repeating monomeric units and having a thickness of 2.5 mils. The graph indicated by reference numeral 133 is the graph for a membrane containing 5% methyl acrylate repeating monomeric units and having a thickness of 2.5 mils.

The conditions of data set [5]: system of European Patent 186,071; cited from earlier work.

In the case of `CC(C)(C)NCC(O)c1cc(Cl)c(N)c(Cl)c1` (centres unmarked) [CLENBUTEROL], the “Flux Thru Human Skin” value is reported as 15.1 ug/cm^2 /day in data set [1] (with membrane 1.25 mil EMA (11% MA)) and 34.5 ug/cm^2 /day in data set [1] (without membrane, 35% PVC resin, 60% ADMEX 760).
As for `Clc1cccc(Cl)c1NC1=NCCN1` [clonidine], in data set [2], the “effect of copolymeric EMA membranes on drug diffusion rates in the transdermal patch” value is reported as “lower the drug diffusion rates in the transdermal patch even at higher clonidine concentrations”. Further, the “solubility in mineral oil” value in data set [3] is reported as “approximately 0.5 mg/ml”.
In the case of `CC(C)(C)NC[C@H](O)COc1nsnc1N1CCOCC1` [timolol], the “release of timolol from the reservoir through ethylene-methyl acrylate membranes” value in data set [4] (5% and 7% methyl acrylate, 1.25 and 2.5 mils thickness) is “Relatively controlled and constant release of the drug was obtained for a period of seven days”. Also, the “release of timolol from a polymeric reservoir into an aqueous sink” value in data set [4] (in the absence of a membrane, ADMEX 760 reservoir) is “very high and followed typical first order kinetics”. Further, the “release behavior of timolol from a polymeric reservoir” value in data set [4] (use of ethylene methyl acrylate membranes) is reported as “altered by the use of ethylene methyl acrylate membranes”. For the same compound, the “irritation to the skin on transdermal application” value in data set [5] is recorded as “substantially no irritation to the skin”.
